Assay results as given in patent US9040527B2, “Pyrimidinediamine kinase inhibitors” (Rigel Pharmaceuticals, Inc., priority 2008, dated 2015).

Columns and labels:
PLK1 [1] = biological target: T1, PLK1 (Homo sapiens, UniProt P53350); test: In vitro PLK1 ELISA assay (biochemical); parameters: purchased Cell Signalling 7728
Method in brief: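 Commercial PLK1 phosphorylates neutravidin-captured biotinylated CHK2 peptide for 45 min at room temperature in HEPES pH 7.2 with Mg2+/Mn2+/DTT, compounds at 10 μM to 0.005 μM. Phospho-CHK2(T68) antibody plus HRP secondary gives chemiluminescent read-out used for IC50.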

PLK1 [2] = biological target: T1, PLK1; test: Cellular PLK1 assay in K562 cells overexpressing CDC25C; type: cell-based; parameters: endogenous in cells; host or cells: K562 (human chronic myelogenous leukemia) overexpressing CDC25C, nocodazole-arrested; conditions: nocodazole arrested, cdc25c p-Ser198 readout
Method in brief: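 K562 cells overexpressing CDC25C were arrested with 333 nM nocodazole for 18 h at 37 °C, then exposed to compound at 8 points from 10 μM to 0.005 μM in duplicate for 120 min. After fixation and permeabilization, cells were stained for cdc25c pSer198 with a PE secondary and read by flow cytometry, 10,000 cells per well.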

[3] = ELISA, CHK2-derived peptide substrate, read-out: PLK1 IC50 (μM) biochemical assay
[4] = read-out: IC50 in biochemical in vitro PLK1 ELISA assay (less than 10 μM)

T1 sequence (P53350 whole entry): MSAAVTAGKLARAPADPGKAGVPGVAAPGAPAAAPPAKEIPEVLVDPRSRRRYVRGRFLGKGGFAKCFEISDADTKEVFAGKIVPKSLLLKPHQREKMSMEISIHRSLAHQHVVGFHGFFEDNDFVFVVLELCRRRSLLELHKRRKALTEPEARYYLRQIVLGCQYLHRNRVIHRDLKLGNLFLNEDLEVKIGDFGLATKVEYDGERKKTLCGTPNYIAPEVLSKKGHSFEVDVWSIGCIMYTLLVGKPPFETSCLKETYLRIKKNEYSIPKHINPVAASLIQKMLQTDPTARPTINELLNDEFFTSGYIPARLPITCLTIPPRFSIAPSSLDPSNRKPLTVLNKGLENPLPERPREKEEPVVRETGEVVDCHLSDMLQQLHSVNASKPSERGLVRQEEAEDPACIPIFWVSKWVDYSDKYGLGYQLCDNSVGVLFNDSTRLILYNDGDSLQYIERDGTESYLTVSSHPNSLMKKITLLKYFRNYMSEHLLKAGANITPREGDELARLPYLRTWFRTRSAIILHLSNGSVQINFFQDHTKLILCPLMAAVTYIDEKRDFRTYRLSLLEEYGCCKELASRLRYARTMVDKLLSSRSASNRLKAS

Structure (SMILES)	IC50 (PLK1 [1]; [3])	IC50 (PLK1 [2])	IC50 (PLK1 [1]; [4])
Cc1cc(Nc2ncc(C)c(Nc3ccc4c(c3)N(Cc3ccccn3)C(=O)C(F)(F)O4)n2)ccc1N1CC2CC1CN2C (stereo not shown) [compound 139, 2,2-difluoro-6-(5-methyl-2-(3-methyl-4-(5-methyl-2,5-diaza-bicyclo[2.2.1]heptan-2-yl)phenyl-amino)pyrimidin-4-ylamino)-4-(pyridin-2-ylmethyl)-2H-benzo[b][1,4]oxazin-3(4H)-one]	≥ 10 µM	5 to 10 µM	–
CCN1C(=O)COc2ccc(Nc3nc(Nc4ccc(N5CCN(C)CC5)cc4)ncc3C)cc21 [compound 189, 4-ethyl-6-(5-methyl-2-(4-(4-methylpiperazin-1-yl)phenylamino)pyrimidin-4-ylamino)-2H-benzo[b][1,4]oxazin-3(4H)-one]	0.5 to 5 µM	0.5 to 5 µM	< 10 µM
CCN1C(=O)COc2ccc(Nc3nc(Nc4ccc(N5CCN(C)CC5)c(C)c4)ncc3C)cc21 [compound 191, 4-ethyl-6-(5-methyl-2-(3-methyl-4-(4-methylpiperazin-1-yl)phenylamino)pyrimidin-4-ylamino)-2H-benzo[b][1,4]oxazin-3(4H)-one]	5 to 10 µM	≥ 10 µM	< 10 µM
CCN1C(=O)COc2ccc(Nc3nc(Nc4ccc(N5CCN(S(C)(=O)=O)CC5)cc4)ncc3C)cc21 [compound 196, 4-ethyl-6-(5-methyl-2-(4-(4-(methyl-sulfonyl)piperazin-1-yl)phenylamino)pyrimidin-4-ylamino)-2H-benzo[b][1,4]oxazin-3(4H)-one]	0.5 to 5 µM	5 to 10 µM	< 10 µM
CN1C(=O)COc2ccc(Nc3nc(Nc4ccc(N5CCN(S(C)(=O)=O)CC5)cc4)ncc3Cl)cc21 [compound 197, 6-(5-chloro-2-(4-(4-(methylsulfonyl)piperazin-1-yl)phenyl-amino)pyrimidin-4-ylamino)-4-methyl-2H-benzo[b][1,4]oxazin-3(4H)-one]	≥ 10 µM	0.5 to 5 µM	–

More lines, now with the values ahead:

IC50 (PLK1 [1]; [3])	IC50 (PLK1 [2])	IC50 (PLK1 [1]; [4])	Structure (SMILES)
< 0.5 µM	< 0.5 µM	< 10 µM	CN1CCN(c2cccc(Nc3ncc(F)c(Nc4ccc5c(n4)NC(=O)CO5)n3)c2)CC1 [compound 157, 6-(5-fluoro-2-(3-(4-methylpiperazin-1-yl)phenylamino)pyrimidin-4-ylamino)-2H-pyrido[3,2-b][1,4]oxazin-3(4H)-one]
< 0.5 µM	0.5 to 5 µM	< 10 µM	CN1CCN(c2cccc(Nc3ncc(F)c(Nc4ccc5c(n4)NC(=O)C(C)(C)O5)n3)c2)CC1 [compound 161, 6-(5-fluoro-2-(3-(4-methylpiperazin-1-yl)phenylamino)pyrimidin-4-ylamino)-2,2-dimethyl-2H-pyrido[3,2-b][1,4]oxazin-3(4H)-one]
< 0.5 µM	< 0.5 µM	< 10 µM	CN1CCN(c2cccc(Nc3ncc(F)c(Nc4ccc5c(n4)NCCO5)n3)c2)CC1 [compound 167, N4-(3,4-dihydro-2H-pyrido[3,2-b][1,4]oxazin-6-yl)-5-fluoro-N2-(3-(4-methylpiperazin-1-yl)phenyl)pyrimidine-2,4-diamine]
0.5 to 5 µM	0.5 to 5 µM	< 10 µM	CCN1C(=O)COc2ccc(Nc3nc(Nc4ccc(N5CCN(C)CC5)cc4)ncc3Cl)cc21 [compound 173, 6-(5-chloro-2-(4-(4-methylpiperazin-1-yl)phenylamino)pyrimidin-4-ylamino)-4-ethyl-2H-benzo[b][1,4]oxazin-3(4H)-one]
0.5 to 5 µM	0.5 to 5 µM	< 10 µM	CCN1CCN(c2ccc(Nc3ncc(Cl)c(Nc4ccc5c(c4)N(CC)C(=O)CO5)n3)cc2)CC1 [compound 183, 6-(5-chloro-2-(4-(4-ethylpiperazin-1-yl)phenylamino)pyrimidin-4-ylamino)-4-ethyl-2H-benzo[b][1,4]oxazin-3(4H)-one]
0.5 to 5 µM	0.5 to 5 µM	< 10 µM	Cc1cnc(Nc2ccc(N3CCN(C)CC3)cc2)nc1Nc1ccc2c(c1)N(CCCF)C(=O)CO2 [compound 188, 4-(3-fluoropropyl)-6-(5-methyl-2-(4-(4-methylpiperazin-1-yl)phenylamino)pyrimidin-4-ylamino)-2H-benzo[b][1,4]oxazin-3(4H)-one]
